Patent US5194437A, “1,4-disubstituted piperazines” (Adir et Compagnie, priority 1990, dated 1993)

Molecular target: T1, 5-HT1A receptors (Rattus norvegicus, UniProt P19327)
T1 sequence (P19327 1-422): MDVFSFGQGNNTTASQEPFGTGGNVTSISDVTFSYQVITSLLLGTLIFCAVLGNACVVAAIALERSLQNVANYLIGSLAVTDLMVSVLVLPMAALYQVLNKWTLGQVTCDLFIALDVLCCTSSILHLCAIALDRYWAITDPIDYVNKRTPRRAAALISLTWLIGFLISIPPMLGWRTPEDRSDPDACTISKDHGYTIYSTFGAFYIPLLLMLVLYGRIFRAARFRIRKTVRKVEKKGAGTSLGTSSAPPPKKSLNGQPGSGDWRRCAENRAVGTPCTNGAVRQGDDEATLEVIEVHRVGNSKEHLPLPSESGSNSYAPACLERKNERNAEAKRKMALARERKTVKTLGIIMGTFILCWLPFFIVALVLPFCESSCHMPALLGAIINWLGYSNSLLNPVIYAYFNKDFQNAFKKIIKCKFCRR
Experiment: In vitro binding test, 5-HT1A receptors, [3]H-8-OH-DPAT, rat hippocampus membranes
Set-up: Hippocampus from the brains of decapitated rats; from tissue; host or cells: rat hippocampus membranes (male Wistar); species or system rat (male Wistar)
Settings: not given

Compound `c1ccc2c(c1)CC(CN1CCN(c3cccc4c3OCCO4)CC1)C2` [Example 14, 4-(benzodioxan-5-yl)-1-[(indan-2-yl)-methyl]-piperazine] has a Ki of 3.39 nM.

Same assay, conditions: hot ligand [3]H-8-OH-DPAT 0.4 nM; rat hippocampus membranes; 25° C., 30 minutes

In order of falling “Affinity (pKi)” value:
1. c1ccc2c(c1)CC(CCN1CCN(c3cccc4c3OCCO4)CC1)C2 [Example 20, 4-(benzodioxan-5-yl)-1-[2-(indan-2-yl)-ethyl]-piperazine]  9.18
2. c1ccc2c(c1)CC(N1CCN(c3cccc4c3OCCCO4)CC1)C2 [Example 9, 4-[benzo(1,5)dioxepin-6-yl]-1-(indan-2-yl)-piperazine]  8.42

Molecular target: T1, 5-HT1A receptors
Experiment: Overall agonist/antagonist behaviour at 5-HT1A receptors (in vivo tests)
Set-up: from tissue; host or cells: whole animal, male Wistar rat (in vivo); species or system male Wistar rats
Settings: conclusion from Tables 1 and 2
Description: (§1) a/ General procedure for tests of agonist and antagonist activities on 5-HT1A receptors.
(§2) The test compounds were administered subcutaneously (s.c.) 60 minutes before the start of the test, that is to say 30 minutes before the vehicle (agonist responses) or 8-OH-DPAT (antagonist responses).
(§3) In all the tests, the solvent is used in parallel as the control. The animals were allowed to rest in their cages during the time between the injections and evaluation.
(§4) For the agonist studies, the solvent was administered at a dose of 1 ml/kg s.c. 30 minutes before the start of the test. For the antagonist studies, doses of 8-OH-DPAT inducing sub-maximal responses were chosen, i.e. doses of 0.63, 0.16, 0.16 and 0.16 mg/kg s.c. for the tail flick test, the flat body posture test, the corticosterone secretion test and the hypothermia test, respectively.

In the case of `O=C1CC2(CCCC2)CC(=O)N1CCCCN1CCN(c2ncccn2)CC1` [buspirone, reference compound], the “Behaviour towards 5-HT1A receptors” value is reported as “agonist behaviour”.

Molecular target: T1, 5-HT1A receptors
Experiment: Spontaneous tail flick test (STF), agonist and antagonist activity
Assay type: in vivo, male Wistar rats
Set-up: from tissue; host or cells: whole animal, male Wistar rat (in vivo)
Settings: agonist: induction of STF; s.c.; minimum effective dose
Description: (§5) The tests were carried out on male Wistar rats weighing from 200 to 220 g which had free access to food and drinking water, in standard cages.
(§6) The animals are housed individually for the hypothermia, corticosterone secretion and flat body posture tests, and in groups of three for the tail flick test.
(§7) The laboratory temperature is kept at 21°±1° C., with 60 ±5% humidity. The rats are subjected to a light/dark cycle of 12 hours/12 hours (the light cycle commencing at 7.30 a.m.).
as §1, §2, §3, §4
Tail flicks were determined in animals restrained in horizontal, opaque plastics cylinders, the animals' tails hanging freely over the edge of the laboratory bench. After a 5-minute adaptation period, the number of movements made in 5 minutes is recorded. One STF is defined as the raising of the tail to a level higher than the level of the body axis [Millan M. J. et al., J. Pharmacol. Exp. Ther., 256, 973-982 (1990)].
(§8) In general, after variance analysis, the results are subjected to Dunnett's test. Results are regarded as significant if p<0.05.
(§9) The doses of the test compounds are all expressed in terms of the base. Unless otherwise mentioned, all the compounds were dissolved in sterile water (to which a few drops of lactic acid are added, if necessary) and administered at a volume of 1 ml/kg s.c..

In the case of `c1ccc2c(c1)CC(N1CCN(c3cccc4c3OCCCO4)CC1)C2` [Example 9, 4-[benzo(1,5)dioxepin-6-yl]-1-(indan-2-yl)-piperazine], the “Spontaneous tail flicks M.E.D.” value is reported as over 10.0 mg/kg.
For `O=C1CC2(CCCC2)CC(=O)N1CCCCN1CCN(c2ncccn2)CC1` [buspirone, reference compound], the “Spontaneous tail flicks M.E.D.” value was over 10.0 mg/kg.

Same assay, conditions: rat, sc, 1 h; antagonist: inhibition of STF induced by 8-OH-DPAT 0.63 mg/kg s.c.; compound s.c. 60 min before test; read-out: Spontaneous tail flicks ID50 (95% C.L.)

In order of rising ED50:
1. c1ccc2c(c1)CC(CCN1CCN(c3cccc4c3OCCO4)CC1)C2 [Example 20, 4-(benzodioxan-5-yl)-1-[2-(indan-2-yl)-ethyl]-piperazine]  0.18 mg/kg
2. c1ccc2c(c1)CC(CN1CCN(c3cccc4c3OCCO4)CC1)C2 [Example 14, 4-(benzodioxan-5-yl)-1-[(indan-2-yl)-methyl]-piperazine]  0.19 mg/kg
3. c1ccc2c(c1)CC(N1CCN(c3cccc4c3OCCCO4)CC1)C2 [Example 9, 4-[benzo(1,5)dioxepin-6-yl]-1-(indan-2-yl)-piperazine]  1.59 mg/kg
4. O=C1CC2(CCCC2)CC(=O)N1CCCCN1CCN(c2ncccn2)CC1 [buspirone, reference compound]  3.71 mg/kg

Molecular target: T1, 5-HT1A receptors
Experiment: Corticosterone secretion (CS), plasma, agonist and antagonist activity
Assay type: in vivo, male Wistar rats
Set-up: from tissue; host or cells: whole animal, male Wistar rat (in vivo)
Settings: agonist: induction of CS; s.c.; minimum effective dose
Description: as §5, §6, §7, §1, §2, §3, §4
(§10) The same animals were employed for the evaluation of the effect of the test compounds on the FBP and for the determination of the plasma levels of CS. All the tests were carried out in the morning between 10.30 and 12.30, i.e. when the cicardian levels of CS are at their lowest.
(§11) The presence of FBP is defined by a characteristic posture of the animal. The animal is then in a position of ventral decubitus with the hind limbs clearly in extension. 5 minutes after observation of FBP, the animals are decapitated and the trunk blood is collected in chilled tubes containing 50 μl of a 10% EDTA solution. After centrifugation at 4000 rpm, the plasma is removed and stored at -30° C. until assay.
CS was determined using a radio-competitive assay for a CS-binding protein in plasma: transcortin. The latter is obtained from monkey serum. Separation of the CS-transcortin complexes from free CS was effected by means of a solution of dextran and active charcoal. The detection limit was 50 pg/tube. Intra- and inter-assay variations were 5 and 15%, respectively [cf. Rivet J. M. et al., Eur. J. Pharmacol., 183, 634-635 (1990)].
Since the base levels of CS in plasma are never zero, the following formula was used to calculate the percentage inhibition of plasmatic CS induced by 8-OH-DPAT: [formula]
as §8, §9

In the case of `c1ccc2c(c1)CC(N1CCN(c3cccc4c3OCCCO4)CC1)C2` [Example 9, 4-[benzo(1,5)dioxepin-6-yl]-1-(indan-2-yl)-piperazine], the “Corticosterone secretion M.E.D.” value is reported as over 2.5 mg/kg.
In the case of `c1ccc2c(c1)CC(CN1CCN(c3cccc4c3OCCO4)CC1)C2` [Example 14, 4-(benzodioxan-5-yl)-1-[(indan-2-yl)-methyl]-piperazine], the “Corticosterone secretion M.E.D.” value is reported as over 2.5 mg/kg.
`c1ccc2c(c1)CC(CCN1CCN(c3cccc4c3OCCO4)CC1)C2` [Example 20, 4-(benzodioxan-5-yl)-1-[2-(indan-2-yl)-ethyl]-piperazine] was tested, and the “Corticosterone secretion M.E.D.” value was over 2.5 mg/kg.
For `O=C1CC2(CCCC2)CC(=O)N1CCCCN1CCN(c2ncccn2)CC1` [buspirone, reference compound], the “Corticosterone secretion M.E.D.” value was over 2.5 mg/kg.

Same assay, conditions: rat, sc, 1 h; antagonist: inhibition of CS induced by 8-OH-DPAT 0.16 mg/kg s.c.; compound s.c. 60 min before test; read-out: Corticosterone secretion ID50 (95% C.L.)

`c1ccc2c(c1)CC(N1CCN(c3cccc4c3OCCCO4)CC1)C2` [Example 9, 4-[benzo(1,5)dioxepin-6-yl]-1-(indan-2-yl)-piperazine] and `c1ccc2c(c1)CC(CN1CCN(c3cccc4c3OCCO4)CC1)C2` [Example 14, 4-(benzodioxan-5-yl)-1-[(indan-2-yl)-methyl]-piperazine] cannot be ordered by ED50: over 2.5 mg/kg for the first, over 2.5 mg/kg for the second.

First: c1ccc2c(c1)CC(CCN1CCN(c3cccc4c3OCCO4)CC1)C2 [Example 20, 4-(benzodioxan-5-yl)-1-[2-(indan-2-yl)-ethyl]-piperazine]
Second: O=C1CC2(CCCC2)CC(=O)N1CCCCN1CCN(c2ncccn2)CC1 [buspirone, reference compound]
The ED50 of the first is lower: under 2.5 mg/kg for the first, over 10 mg/kg for the second.

Molecular target: T1, 5-HT1A receptors
Experiment: Body temperature (hypothermia), agonist and antagonist activity
Assay type: in vivo, male Wistar rats
Set-up: from tissue; host or cells: whole animal, male Wistar rat (in vivo)
Settings: agonist: induction of hypothermia; s.c.; minimum effective dose
Description: as §5, §6, §7, §1, §2, §3, §4
The rats are immobilised and a lubricated digital thermometer (Thermistoprobe from Testotherm, Basle, Switzerland) is inserted into the rectum to a depth of 5 cm. 30 seconds after insertion, the temperature is read off a digital scale. The percentage inhibition is calculated with the aid of the formula mentioned above.
as §8, §9

In order of falling “Hypothermia M.E.D.” value:
1. c1ccc2c(c1)CC(CCN1CCN(c3cccc4c3OCCO4)CC1)C2 [Example 20, 4-(benzodioxan-5-yl)-1-[2-(indan-2-yl)-ethyl]-piperazine]  10.0 mg/kg
2. c1ccc2c(c1)CC(N1CCN(c3cccc4c3OCCCO4)CC1)C2 [Example 9, 4-[benzo(1,5)dioxepin-6-yl]-1-(indan-2-yl)-piperazine]  5.0 mg/kg
3. O=C1CC2(CCCC2)CC(=O)N1CCCCN1CCN(c2ncccn2)CC1 [buspirone, reference compound]  2.5 mg/kg

In the case of `c1ccc2c(c1)CC(CN1CCN(c3cccc4c3OCCO4)CC1)C2` [Example 14, 4-(benzodioxan-5-yl)-1-[(indan-2-yl)-methyl]-piperazine], the “Hypothermia M.E.D.” value is reported as over 10.0 mg/kg.

Same assay, conditions: rat, sc, 1 h; antagonist: inhibition of hypothermia induced by 8-OH-DPAT 0.16 mg/kg s.c.; compound s.c. 60 min before test; read-out: Hypothermia ID50 (95% C.L.)

First: c1ccc2c(c1)CC(N1CCN(c3cccc4c3OCCCO4)CC1)C2 [Example 9, 4-[benzo(1,5)dioxepin-6-yl]-1-(indan-2-yl)-piperazine]
Second: c1ccc2c(c1)CC(CN1CCN(c3cccc4c3OCCO4)CC1)C2 [Example 14, 4-(benzodioxan-5-yl)-1-[(indan-2-yl)-methyl]-piperazine]
The ED50 of the first is higher: 4.36 mg/kg for the first, under 2.5 mg/kg for the second.

With `c1ccc2c(c1)CC(CCN1CCN(c3cccc4c3OCCO4)CC1)C2` [Example 20, 4-(benzodioxan-5-yl)-1-[2-(indan-2-yl)-ethyl]-piperazine] the ED50 was 0.58 mg/kg.

Molecular target: T1, 5-HT1A receptors
Experiment: Flat body posture (FBP), agonist response and antagonism of 8-OH-DPAT
Assay type: in vivo, male Wistar rats
Set-up: from tissue; host or cells: whole animal, male Wistar rat (in vivo)
Settings: sc, 1 h, read-out: Flat body posture ED50 (95% C.L.), antagonism of 8-OH-DPAT, inhibition of FBP, 8-OH-DPAT 0.16 mg/kg s.c., compound s.c. 60 min before test
Description: as §5, §6, §7, §1, §2, §3, §4, §10
25 minutes after the treatment (i.e. 5 minutes before decapitation), the animals are observed in their cages and the presence or absence of FBP is noted.
as §11, §8
For the dose-response for induction and inhibition of FBP, the effective doses 50 (ED50) (doses at which 50% of the animals show a response) were calculated by the method of Litchfield and Wilcoxon.
as §9

`c1ccc2c(c1)CC(N1CCN(c3cccc4c3OCCCO4)CC1)C2` [Example 9, 4-[benzo(1,5)dioxepin-6-yl]-1-(indan-2-yl)-piperazine] and `c1ccc2c(c1)CC(CN1CCN(c3cccc4c3OCCO4)CC1)C2` [Example 14, 4-(benzodioxan-5-yl)-1-[(indan-2-yl)-methyl]-piperazine] cannot be ordered by ED50: under 2.5 mg/kg for the first, at least 2.5 mg/kg for the second.

Going from `c1ccc2c(c1)CC(CCN1CCN(c3cccc4c3OCCO4)CC1)C2` [Example 20, 4-(benzodioxan-5-yl)-1-[2-(indan-2-yl)-ethyl]-piperazine] to `O=C1CC2(CCCC2)CC(=O)N1CCCCN1CCN(c2ncccn2)CC1` [buspirone, reference compound], the ED50 rises from under 2.5 mg/kg to over 10 mg/kg.

Same assay, conditions: sc, induction of FBP, s.c., dose at which 50% of the animals show a response, read-out: Flat body posture ED50 (95% C.L.), agonist response

`c1ccc2c(c1)CC(N1CCN(c3cccc4c3OCCCO4)CC1)C2` [Example 9, 4-[benzo(1,5)dioxepin-6-yl]-1-(indan-2-yl)-piperazine] and `c1ccc2c(c1)CC(CN1CCN(c3cccc4c3OCCO4)CC1)C2` [Example 14, 4-(benzodioxan-5-yl)-1-[(indan-2-yl)-methyl]-piperazine] cannot be ordered by ED50: over 2.5 mg/kg for the first, over 2.5 mg/kg for the second.

`c1ccc2c(c1)CC(CCN1CCN(c3cccc4c3OCCO4)CC1)C2` [Example 20, 4-(benzodioxan-5-yl)-1-[2-(indan-2-yl)-ethyl]-piperazine] and `O=C1CC2(CCCC2)CC(=O)N1CCCCN1CCN(c2ncccn2)CC1` [buspirone, reference compound] cannot be ordered by ED50: over 2.5 mg/kg for the first, 7.4 mg/kg for the second.
